The test system of data set [1] is SW480. Description: Ratio of 5-fluorouracil IC50 to compound IC50 for human SW480 cells after 48 hrs by MTT assay. The data set is classed as functional.
The subject of data set [2] is HeLa. Description: Ratio of 5-fluorouracil IC50 to compound IC50 for human HeLa cells after 48 hrs by MTT assay. The data set is classed as functional. A general note: Formazan colour is commonly taken as a measure of viable cells.
For data set [3], the system named is A549. The data set is described as follows: Ratio of 5-fluorouracil IC50 to compound IC50 for human A549 cells after 48 hrs by MTT assay. The data set is classed as functional.
The subject of data set [4] is SW480. The data set is described as follows: cells. To be noted: Homo sapiens, SW480, 48 h.
Description: Cytotoxicity against human SW480 cells after 48 hrs by MTT assay
A further data set deals with MDA-MB-231. Description: cells. To be noted: Homo sapiens, MDA-MB-231, 48 h.
Another data set deals with SGC-7901. Description: cells. As to conditions: Homo sapiens, SGC-7901, 48 h.
The nature of the next data set: cells. To be noted: Homo sapiens, QGY7701, 48 h.
The subject of data set [5] is A549. Description: cells. As to conditions: Homo sapiens, A549, 48 h.
Description: Cytotoxicity against human A549 cells after 48 hrs by MTT assay
Data set [6] concerns HeLa. The data set is described as follows: cells. To be noted: Homo sapiens, 48 h.
Description: Cytotoxicity against human HeLa cells after 48 hrs by MTT assay
Another data set in a line: physchem. To be noted: octanol/water.

Description for MDA-MB-231: Cytotoxicity against human MDA-MB-231 cells after 48 hrs by MTT assay
Description for SGC-7901: Cytotoxicity against human SGC7901 cells after 48 hrs by MTT assay
Description for physchem: Lipophilicity, log P of the compound

One may read the IC50 as the concentration needed to halve the response being measured. A lower IC50 goes with higher potency. As a reminder, the logP is a log measure of how a compound divides between an organic and an aqueous phase. Low readings indicate lower lipophilicity, high ones higher lipophilicity. As to `COc1ccc(C(=O)c2ccc(=O)n(-c3ccccc3C)c2)c(OC(=O)OCc2ccccc2)c1`, the “Ratio IC50” value in the data set with SW480 [1] stood at 30.2; in the data set with HeLa [2], 35.9; in the data set with A549 [3] it was 9.5. Also, the IC50 with SW480 [4] is 520 nM; in the data set with MDA-MB-231, 750 nM; with SGC-7901, 690 nM; in “cells”, 4330 nM; in the data set on A549 [5] it was 590 nM; with HeLa [6], 460 nM. Moreover, in the data set “physchem”, the logP is 4.23.

Consider `COc1ccc(C(=O)C2=CC(c3ccccc3C)C(=O)C=C2)c(OCc2cn(Cc3ccc(C(C)(C)C)cc3)nn2)c1` (configuration not stated), for which the “Ratio IC50” value in the data set with SW480 [1] was found to be 142.7; with HeLa [2], 48.5. Besides, the half-inhibitory concentration (IC50) stood at 110 nM with SW480 [4]; 3350 nM in the data set with MDA-MB-231; 3520 nM with SGC-7901; 3390 nM in the data set “cells”; 1730 nM in the data set on A549 [5]; 340 nM with HeLa [6].

In the case of `COc1ccc(C(=O)c2ccc(=O)n(-c3ccccc3C)c2)c(OCc2cn(Cc3ccc(Cl)cc3)nn2)c1`, the “Ratio IC50” value in the data set with SW480 [1] is 74.8; in the data set with HeLa [2], 30.6; in the data set on A549 [3], 6.5. Also, the IC50 is 210 nM in the data set on SW480 [4]; 320 nM with MDA-MB-231; 1100 nM in the data set on SGC-7901; greater than 30000 nM in the data set “cells”; 860 nM with A549 [5]; 540 nM in the data set with HeLa [6]. The same compound registered a logP in “physchem” of 4.05.

For the compound `COc1ccc(C(=O)c2ccc(=O)n(-c3ccccc3C)c2)c(OCc2cn(Cc3cccc(F)c3)nn2)c1`, the IC50 was 2230 nM with SW480 [4]; 1240 nM in the data set on MDA-MB-231; greater than 30000 nM with SGC-7901; greater than 30000 nM in the data set “cells”; 3060 nM in the data set on A549 [5]; 5750 nM in the data set on HeLa [6]. Further, the logP in the data set “physchem” was found to be 3.59.

As to `COc1ccc(C(=O)c2ccc(=O)n(-c3ccccc3C)c2)c(OCc2cn(Cc3ccc(C#N)cc3)nn2)c1`, the IC50 with SW480 [4] is greater than 30000 nM; in the data set with MDA-MB-231, 430 nM; in the data set on SGC-7901 it was greater than 30000 nM; in the data set “cells”, 2870 nM; in the data set on A549 [5], 4310 nM; in the data set with HeLa [6], 890 nM. For the same compound, the logP in “physchem” came to 3.6.

For the origin of these results see ChEMBL document CHEMBL2417411, “Design and synthesis of novel 2'-hydroxy group substituted 2-pyridone derivatives as anticancer agents” (Eur J Med Chem, 2013).
